# Results as given in US10471030B2, “Immunomodulatory and differentiating function selective retinoid and rexinoid compounds in combination with immune modulators for cancer immunotherapy” (Io Therapeutics, Inc., priority 2017, dated 2019).
# Legend:
# H929 Luc+ cells = test: subcutaneous xenograft model of MM-niche interactions with WT or Smo-KO stroma, bioluminescence; format: in vivo, NSG mice; conditions: IRX 10 mg/kg i.p. daily, BTZ 0.5 mg/kg i.p. twice weekly
# Protocol: 1×10^6 H929 Luc+ cells and 1×10^6 mouse BM stromal cells were resuspended in 100 μl […]®, diluted with RPMI (1:1), and injected subcutaneously into 16-week-old male NSG mice. After 4 days, treatment with BTZ (0.5 mg/kg i.p. twice weekly) and IRX (10 mg/kg i.p. daily) was initiated. Tumor burden was assessed by bioluminescence using the In Vivo Imaging System (PerkinElmer). For imaging, mice were exposed to 120 mg/kg D-luciferin via intraperitoneal injection […] before imaging and were anesthetized using isoflurane. Images were analyzed with Living Image Software, version 2.5 (PerkinElmer), and data were quantified as photons/second.
# To study to what extent an RA-low environment created by the BM stroma and enhanced by MM cells via paracrine Hedgehog signaling contributes to BTZ resistance, a xenograft model of MM-niche interactions was developed. Each mouse carried 2 subcutaneous tumors consisting of H929 Luc+ cells and either WT (anterior tumors) or Smo-KO stroma (posterior tumors). Mice were treated with IRX (10 mg/kg i.p. daily), BTZ (0.5 mg/kg i.p. twice weekly), or a combination of both. The growth of tumors bearing WT or Smo-KO stroma was not different in untreated or IRX-treated groups (FIGS. 9 and 10). […] While some tumors in the treatment group receiving combined IRX and BTZ appeared to have regressed completely, even after anatomical study, this was not the case for all the mice in this group.
# Kasumi-1 cells = test: CFU experiments off and on stroma, Kasumi-1 cells; format: cell-based; conditions: 10^−6 M ATRA, IRX5183, or 10^−7 M AM80
# Source text: (§1) Data across three independent experiments.
# [1] = system: H929 luciferase+ (Luc+) cells; test: systemic MM xenograft, bioluminescence; format: in vivo, NSG mice; conditions: 4 weeks
# Protocol: For the systemic MM model, 2×10^6 Luc+/GFP+ H929 cells were injected via the tail vein into 16-week-old male NSG mice. After engraftment, as determined by an exponential increase in bioluminescence, mice were treated with BTZ (0.5 mg/kg i.p.) twice weekly and with IRX (10 mg/kg) once daily. Tumor burden was assessed by bioluminescence, as above.
# To test whether retinoids can enhance BTZ activity in MM, a systemic MM xenograft was developed by injecting 2×10^6 H929 luciferase+ (Luc+) cells via the tail vein of non-obese, diabetic, severe combined immunodeficiency IL-2 receptor γ-KO (NSG) mice. The animals were randomized to receive IRX, BTZ, or a combination of both, and disease burden was followed weekly by bioluminescence imaging (FIG. 6).
# NB4 cells = test: CFU experiments off and on stroma, NB4 cells; format: cell-based; conditions: 10^−7 M ATRA, IRX5183, or 10^−8 M AM80
# Source text: as §1
# [2] = system: MM cell lines and MM CD138+ primary cells; test: BTZ sensitivity of MM cells, clonogenic or cellular recovery, liquid or BM stroma; format: cell-based, human; conditions: BM stroma with 1 μM test agent for 5 days, then BTZ 2.5 nM for 48 hr
# Protocol: 24-well plates were coated with 0.1% gelatin in PBS for 30 min at 37° C. The gelatin solution was removed, and the stromal cells were cultured overnight at a density of 5×10^4 cells/well to obtain a confluent monolayer. At that time, MM cell lines or primary MM cells (1×10^5 in 2 ml) were added to the stroma cultures. The stroma cocultures were incubated at 37° C. in RPMI containing 10% FCS, L-glutamine, and P/S, with or without AGN194310 (1 μM for 5 days), R115866 (1 μM for 5 days), IRX5183 (1 μM for 5 days), or BTZ (2.5 nM for 48 hr).
# MM cells were separated from BM stromal cells by gently pipetting several times around the well. Detached cells were centrifuged, resuspended in fresh media, and incubated in a 24-well plate for 1 hr at 37° C. During this short incubation period, contaminating stromal cells attached to the well, while MM cells remained in suspension. MM cells were then recovered by gently pipetting. This protocol was used for qRT-PCR and CFU coculture experiments. The purity achieved using this protocol was confirmed by flow cytometry to be 98%-99% MM cells and less than 2% contaminating stroma.
# After treatment, MM cells were collected, washed with PBS, and plated at a density of 5,000 cells/ml in 1 ml of 1.32% methylcellulose supplemented with 30% FBS, 10% BSA, L-glutamine, P/S, and 0.1 mM β-ME. Cells were plated in triplicate in 35-mm culture dishes, incubated at 37° C., and scored for the presence of colonies 14 days later.
# To determine whether decreased retinoid signaling contributes to BTZ resistance within the BM niche, MM cell lines and MM CD138+ primary cells were incubated with BM stroma for 5 days, followed by BTZ treatment.
# Strategies to overcome microenvironment-dependent chemoprotection have focused on mobilization of cancer cells from the BM niche into the peripheral circulation. It was analyzed whether the change in phenotype and subsequent BTZ resistance of MM cells were lost upon separation from the BM stroma, a process that mimics mobilization. To this end, H929 cells were separated from BM mesenchymal cells following a 5-day stroma co-culture, incubated in fresh media (RPMI with 10% FBS) for 0 to 48 hr, and then treated with BTZ. […] Thus, microenvironment-dependent BTZ resistance induced by the change in MM cell phenotype may not immediately be reversed by tumor mobilization.
smiles,measurement,setting,value
CC1(C)CCC(C)(C)c2c1cc(C(=O)Nc1cc(F)c(C(=O)O)c(F)c1)c(O)c2Cl [IRX5183],growth or response of tumors bearing WT versus Smo-KO stroma,H929 Luc+ cells,not different
same,clonogenic growth (CFU),Kasumi-1 cells,decrease in clonogenic growth compared to control
same,disease burden (bioluminescence),[1]; IRX in combination with BTZ,significant (P<0.01) decrease in disease burden
same,tumor burden (bioluminescence),"[1]; monotherapy, BTZ 0.5 mg/kg i.p. twice weekly, IRX 10 mg/kg once daily",decrease in tumor burden compared with untreated mice
same,clonogenic growth (CFU),NB4 cells,decrease in clonogenic growth compared to control
same,stroma-induced BTZ resistance,[2],overcome
